Test systems include A549 NSCLC; BT-549 breast; COLO 205 colon; HCT-116 colon; K-562 leukemia; KM12 colon; MALME-3M melanoma; MDA-N; NCI/ADR-RES ovarian; OVCAR-4 ovarian; PC-3 prostate; SK-MEL-28 melanoma; SK-MEL-5 melanoma; SN12C renal; SR leukemia; T-47D breast; TK-10 renal; OVCAR-8 ovarian.
Test in all cases: NCI-60 cell line screen, 48 h

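Each compound was tested at five concentrations against cells in 96-well plates for 48 hours. TGI denotes the concentration required for complete inhibition of growth.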 Some results are limits rather than exact numbers.

In the case of `Clc1ccc(-c2cn3c(nc4ccccc43)c(/C=C/c3cccs3)n2)cc1`, the TGI in the assay with A549 NSCLC, with BT-549 breast, in the assay with COLO 205 colon, in the assay on HCT-116 colon, in the assay with K-562 leukemia and in the assay with KM12 colon was greater than 100 µM throughout. In addition, the TGI with MALME-3M melanoma, with MDA-N, in the assay with NCI/ADR-RES ovarian, in the assay on OVCAR-4 ovarian, in the assay with PC-3 prostate and in the assay on SK-MEL-28 melanoma was greater than 100 µM throughout. The TGI in the assay with SK-MEL-5 melanoma, in the assay on SN12C renal, in the assay on SR leukemia, with T-47D breast and with TK-10 renal was greater than 100 µM in each case.
As to `O=c1[nH]ncc2[nH]c(-c3ccccc3)cc12`, the TGI in the assay on A549 NSCLC, in the assay on BT-549 breast, with COLO 205 colon, in the assay with HCT-116 colon, with K-562 leukemia and in the assay on KM12 colon was greater than 100 µM in each case. Moreover, the TGI with MALME-3M melanoma is greater than 100 µM; in the assay on MDA-N it was greater than 100 µM; in the assay on NCI/ADR-RES ovarian it was 69 µM; in the assay with OVCAR-4 ovarian, greater than 100 µM; in the assay with OVCAR-8 ovarian, greater than 100 µM; in the assay with PC-3 prostate, 95.1 µM. Besides, the TGI was 60.5 µM with SK-MEL-5 melanoma; greater than 100 µM in the assay with SN12C renal; greater than 100 µM in the assay with SR leukemia; greater than 100 µM in the assay on T-47D breast; greater than 100 µM with TK-10 renal.
Regarding `CN(NC(=O)c1ccc(Cl)cc1)C1=NCCCCN1`, the TGI with A549 NSCLC, in the assay on BT-549 breast, in the assay with COLO 205 colon, with HCT-116 colon, in the assay with K-562 leukemia and with KM12 colon was greater than 100 µM throughout. In addition, the TGI in the assay on MALME-3M melanoma, in the assay with MDA-N, with NCI/ADR-RES ovarian, with OVCAR-4 ovarian, with OVCAR-8 ovarian and in the assay with PC-3 prostate was greater than 100 µM in each case. Moreover, the TGI in the assay on SK-MEL-28 melanoma, in the assay on SK-MEL-5 melanoma, with SR leukemia, with T-47D breast and in the assay on TK-10 renal was greater than 100 µM each time.
Regarding `O=C(Nn1c(-c2ccccc2)nc2ccccc2c1=O)c1ccc([N+](=O)[O-])cc1`, the TGI in the assay with A549 NSCLC, in the assay with BT-549 breast, in the assay with COLO 205 colon, in the assay on K-562 leukemia, in the assay with KM12 colon and in the assay with MALME-3M melanoma was greater than 100 µM in each case. For the same compound, the TGI with MDA-N, in the assay with NCI/ADR-RES ovarian, with OVCAR-4 ovarian, in the assay with OVCAR-8 ovarian, in the assay on PC-3 prostate and in the assay on SK-MEL-28 melanoma was greater than 100 µM in each case. For the same compound, the TGI in the assay on SK-MEL-5 melanoma, in the assay on SN12C renal, in the assay on SR leukemia, in the assay on T-47D breast and in the assay with TK-10 renal was greater than 100 µM each time.
`COc1cc(S(=O)(=O)Nc2ccc(-c3csc(/N=C\c4ccccc4O)n3)cc2)ccc1Cl`: the TGI with A549 NSCLC, in the assay with BT-549 breast, in the assay on COLO 205 colon, in the assay with HCT-116 colon, in the assay with K-562 leukemia and with KM12 colon was greater than 100 µM each time. Besides, the TGI with MALME-3M melanoma, in the assay with MDA-N, in the assay with NCI/ADR-RES ovarian, in the assay on OVCAR-4 ovarian, in the assay with OVCAR-8 ovarian and with PC-3 prostate was greater than 100 µM in each case. Moreover, the TGI with SK-MEL-28 melanoma is greater than 100 µM; in the assay on SK-MEL-5 melanoma, greater than 100 µM; with SN12C renal, greater than 100 µM; with SR leukemia, 95.2 µM; with T-47D breast, 61.2 µM.
Take `CNC(=S)N/N=C(\C)c1cc(OC)c(OC)cc1O`: the TGI in the assay with A549 NSCLC, with BT-549 breast, in the assay on COLO 205 colon, in the assay on HCT-116 colon, with K-562 leukemia and with KM12 colon was greater than 100 µM throughout. For the same compound, the TGI in the assay with MALME-3M melanoma, in the assay with MDA-N, with NCI/ADR-RES ovarian, with OVCAR-8 ovarian, with PC-3 prostate and in the assay with SK-MEL-28 melanoma was greater than 100 µM throughout. Also, the TGI with SK-MEL-5 melanoma, in the assay on SN12C renal, in the assay on SR leukemia, in the assay with T-47D breast and with TK-10 renal was greater than 100 µM throughout.
With `CO[C@@H]1C[C@H]2[C@@H]3CC[C@H]([C@@H](C)COC(C)=O)[C@@]3(C)CC[C@@H]2[C@@]2(C)CC[C@H]3C[C@]312`, the TGI was 37.3 µM in the assay with A549 NSCLC; 27.2 µM in the assay on BT-549 breast; 20.2 µM with COLO 205 colon; 22.2 µM in the assay on HCT-116 colon; 27.7 µM in the assay with K-562 leukemia; 23.2 µM in the assay on KM12 colon. Moreover, the TGI with MALME-3M melanoma was 29.4 µM; with MDA-N, 35.4 µM; in the assay with NCI/ADR-RES ovarian it was 30.4 µM; with OVCAR-4 ovarian it was 44.8 µM; in the assay on OVCAR-8 ovarian, 24.7 µM; in the assay with PC-3 prostate it was 29.6 µM. The TGI stood at 31.9 µM with SK-MEL-28 melanoma; 15.2 µM with SK-MEL-5 melanoma; 32.1 µM in the assay on SN12C renal; 26.5 µM in the assay on SR leukemia; 31.1 µM in the assay with T-47D breast.
`COc1ccc(/C=C2\N=C(N3CCOCC3)NC2=O)cc1`: the TGI in the assay with A549 NSCLC, in the assay on BT-549 breast, in the assay on COLO 205 colon, in the assay on HCT-116 colon, in the assay on KM12 colon and with MALME-3M melanoma was greater than 100 µM in each case. The TGI with MDA-N, with NCI/ADR-RES ovarian, in the assay on OVCAR-4 ovarian, with OVCAR-8 ovarian, in the assay on PC-3 prostate and with SK-MEL-28 melanoma was greater than 100 µM throughout. The TGI in the assay on SN12C renal, in the assay on SR leukemia, in the assay with T-47D breast and in the assay on TK-10 renal was greater than 100 µM each time.

Source of the values: PubChem BioAssay (NCI).
